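Interpolation was linear, between the two tested concentrations surrounding the appropriate level; five concentrations were tested over 48 hours in 96-well plates. GI50 is the concentration that inhibits growth by half. The concentration for full growth arrest is given as TGI.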
How the values were obtained:
Assay in all cases: NCI-60 cell line screen, 48 h
HL-60(TB) leukemia = system: HL-60(TB) leukemia
NCI-H226 lung = system: NCI-H226 lung
M14 melanoma = system: M14 melanoma
RPMI-8226 leukemia = system: RPMI-8226 leukemia
OVCAR-8 ovarian = system: OVCAR-8 ovarian
CCRF-CEM leukemia = system: CCRF-CEM leukemia
NCI/ADR-RES ovarian = system: NCI/ADR-RES ovarian
HCT-15 colon = system: HCT-15 colon
KM12 colon = system: KM12 colon
A498 renal = system: A498 renal
EKVX NSCLC = system: EKVX NSCLC
SF-268 CNS = system: SF-268 CNS
MCF7 breast = system: MCF7 breast
HS 578T breast = system: HS 578T breast
PC-3 prostate = system: PC-3 prostate
BT-549 breast = system: BT-549 breast
K-562 leukemia = system: K-562 leukemia
UO-31 renal = system: UO-31 renal
UACC-257 melanoma = system: UACC-257 melanoma
SK-MEL-5 melanoma = system: SK-MEL-5 melanoma
MDA-MB-435 = system: MDA-MB-435
RXF 393 renal = system: RXF 393 renal
SN12C renal = system: SN12C renal
OVCAR-5 ovarian = system: OVCAR-5 ovarian
HOP-62 NSCLC = system: HOP-62 NSCLC
NCI-H522 lung = system: NCI-H522 lung
OVCAR-3 ovarian = system: OVCAR-3 ovarian
DU-145 prostate = system: DU-145 prostate
MDA-MB-231 breast = system: MDA-MB-231 breast
MOLT-4 leukemia = system: MOLT-4 leukemia
786-0 renal = system: 786-0 renal
HCC-2998 colon = system: HCC-2998 colon
U251 CNS = system: U251 CNS
SF-295 CNS = system: SF-295 CNS
SF-539 CNS = system: SF-539 CNS
NCI-H460 lung = system: NCI-H460 lung
LOX IMVI melanoma = system: LOX IMVI melanoma
UACC-62 melanoma = system: UACC-62 melanoma
IGROV1 ovarian = system: IGROV1 ovarian
TK-10 renal = system: TK-10 renal
ACHN renal = system: ACHN renal
A549 NSCLC = system: A549 NSCLC
SK-MEL-28 melanoma = system: SK-MEL-28 melanoma
HCT-116 colon = system: HCT-116 colon
MALME-3M melanoma = system: MALME-3M melanoma
T-47D breast = system: T-47D breast
SNB-19 CNS = system: SNB-19 CNS
NCI-H23 lung = system: NCI-H23 lung
CAKI-1 renal = system: CAKI-1 renal
SW-620 colon = system: SW-620 colon
SK-OV-3 ovarian = system: SK-OV-3 ovarian
SNB-75 CNS = system: SNB-75 CNS
SR leukemia = system: SR leukemia
HT29 colon = system: HT29 colon
COLO 205 colon = system: COLO 205 colon
HOP-92 NSCLC = system: HOP-92 NSCLC
OVCAR-4 ovarian = system: OVCAR-4 ovarian
SK-MEL-2 melanoma = system: SK-MEL-2 melanoma

N#Cc1c(Br)n(C2OC(CO)C(O)C2O)c2ncn3ccnc3c12 (stereo unspecified)
GI50 (HL-60(TB) leukemia): > 100 µM | TGI (HL-60(TB) leukemia): > 100 µM | GI50 (NCI-H226 lung): 40.6 µM | TGI (NCI-H226 lung): > 100 µM | GI50 (M14 melanoma): > 100 µM | TGI (M14 melanoma): > 100 µM | GI50 (RPMI-8226 leukemia): > 100 µM | TGI (RPMI-8226 leukemia): > 100 µM | GI50 (OVCAR-8 ovarian): 52.3 µM | TGI (OVCAR-8 ovarian): > 100 µM | GI50 (CCRF-CEM leukemia): > 100 µM | TGI (CCRF-CEM leukemia): > 100 µM | GI50 (NCI/ADR-RES ovarian): > 100 µM | TGI (NCI/ADR-RES ovarian): > 100 µM | GI50 (HCT-15 colon): > 100 µM | TGI (HCT-15 colon): > 100 µM | GI50 (KM12 colon): > 100 µM | TGI (KM12 colon): > 100 µM | GI50 (A498 renal): 19.9 µM | TGI (A498 renal): > 100 µM | GI50 (EKVX NSCLC): > 100 µM | TGI (EKVX NSCLC): > 100 µM | GI50 (SF-268 CNS): 58 µM | TGI (SF-268 CNS): > 100 µM | GI50 (MCF7 breast): > 100 µM | TGI (MCF7 breast): > 100 µM | GI50 (HS 578T breast): > 100 µM | TGI (HS 578T breast): > 100 µM | GI50 (PC-3 prostate): 63.8 µM | TGI (PC-3 prostate): > 100 µM | GI50 (BT-549 breast): > 100 µM | TGI (BT-549 breast): > 100 µM | GI50 (K-562 leukemia): 62.4 µM | TGI (K-562 leukemia): > 100 µM | GI50 (UO-31 renal): 53.6 µM | TGI (UO-31 renal): > 100 µM | GI50 (UACC-257 melanoma): > 100 µM | TGI (UACC-257 melanoma): > 100 µM | GI50 (SK-MEL-5 melanoma): 64 µM | TGI (SK-MEL-5 melanoma): > 100 µM | GI50 (MDA-MB-435): > 100 µM | TGI (MDA-MB-435): > 100 µM | GI50 (RXF 393 renal): 86.7 µM | TGI (RXF 393 renal): > 100 µM | GI50 (SN12C renal): > 100 µM | TGI (SN12C renal): > 100 µM | GI50 (OVCAR-5 ovarian): > 100 µM | TGI (OVCAR-5 ovarian): > 100 µM | GI50 (HOP-62 NSCLC): > 100 µM | TGI (HOP-62 NSCLC): > 100 µM | GI50 (NCI-H522 lung): > 100 µM | TGI (NCI-H522 lung): > 100 µM | GI50 (OVCAR-3 ovarian): > 100 µM | TGI (OVCAR-3 ovarian): > 100 µM | GI50 (DU-145 prostate): 69.5 µM | TGI (DU-145 prostate): > 100 µM | GI50 (MDA-MB-231 breast): > 100 µM | TGI (MDA-MB-231 breast): > 100 µM | GI50 (MOLT-4 leukemia): 41.9 µM | TGI (MOLT-4 leukemia): > 100 µM | GI50 (786-0 renal): > 100 µM | TGI (786-0 renal): > 100 µM | GI50 (HCC-2998 colon): > 100 µM | TGI (HCC-2998 colon): > 100 µM | GI50 (U251 CNS): > 100 µM | TGI (U251 CNS): > 100 µM | GI50 (SF-295 CNS): > 100 µM | TGI (SF-295 CNS): > 100 µM | GI50 (SF-539 CNS): > 100 µM | TGI (SF-539 CNS): > 100 µM | GI50 (NCI-H460 lung): 40.7 µM | TGI (NCI-H460 lung): > 100 µM | GI50 (LOX IMVI melanoma): 60.1 µM | TGI (LOX IMVI melanoma): > 100 µM | GI50 (UACC-62 melanoma): > 100 µM | TGI (UACC-62 melanoma): > 100 µM | GI50 (IGROV1 ovarian): 81.9 µM | TGI (IGROV1 ovarian): > 100 µM | GI50 (TK-10 renal): > 100 µM | TGI (TK-10 renal): > 100 µM | GI50 (ACHN renal): 57.6 µM | TGI (ACHN renal): > 100 µM | GI50 (A549 NSCLC): > 100 µM | TGI (A549 NSCLC): > 100 µM | GI50 (SK-MEL-28 melanoma): > 100 µM | TGI (SK-MEL-28 melanoma): > 100 µM | GI50 (HCT-116 colon): 46.8 µM | TGI (HCT-116 colon): > 100 µM | GI50 (MALME-3M melanoma): > 100 µM | TGI (MALME-3M melanoma): > 100 µM | GI50 (T-47D breast): > 100 µM | TGI (T-47D breast): > 100 µM | GI50 (SNB-19 CNS): > 100 µM | TGI (SNB-19 CNS): > 100 µM | GI50 (NCI-H23 lung): > 100 µM | TGI (NCI-H23 lung): > 100 µM | GI50 (CAKI-1 renal): > 100 µM | TGI (CAKI-1 renal): > 100 µM | GI50 (SW-620 colon): 44.1 µM | TGI (SW-620 colon): > 100 µM | GI50 (SK-OV-3 ovarian): > 100 µM | TGI (SK-OV-3 ovarian): > 100 µM | GI50 (SNB-75 CNS): > 100 µM | TGI (SNB-75 CNS): > 100 µM | GI50 (SR leukemia): 50.7 µM | TGI (SR leukemia): > 100 µM | GI50 (HT29 colon): 65.3 µM | TGI (HT29 colon): > 100 µM | GI50 (COLO 205 colon): 55.1 µM | TGI (COLO 205 colon): > 100 µM

COc1nc(Cl)nc(Cl)c1Cl (tested in a mixture with another compound)
TGI (NCI-H226 lung): 77 µM | TGI (M14 melanoma): 27.6 µM | TGI (RPMI-8226 leukemia): 5.61 µM | TGI (OVCAR-8 ovarian): > 30.8 µM | TGI (CCRF-CEM leukemia): 12.1 µM | TGI (NCI/ADR-RES ovarian): > 27.7 µM | TGI (HCT-15 colon): 18.7 µM | TGI (A498 renal): 37.4 µM | TGI (EKVX NSCLC): 1.4 µM | TGI (SF-268 CNS): > 31.7 µM | TGI (MCF7 breast): 24.2 µM | TGI (HOP-92 NSCLC): 14.9 µM | TGI (HS 578T breast): > 100 µM | TGI (PC-3 prostate): 26 µM | TGI (BT-549 breast): 22.5 µM | TGI (K-562 leukemia): 23.8 µM | TGI (UO-31 renal): 1.94 µM | TGI (UACC-257 melanoma): 12 µM | TGI (SK-MEL-5 melanoma): 31.5 µM | TGI (MDA-MB-435): > 36.3 µM | TGI (RXF 393 renal): 31.7 µM | TGI (SN12C renal): 51.6 µM | TGI (OVCAR-5 ovarian): 49.9 µM | TGI (HOP-62 NSCLC): 10.3 µM | TGI (NCI-H522 lung): 1.55 µM | TGI (OVCAR-3 ovarian): 12.4 µM | TGI (OVCAR-4 ovarian): 14.1 µM | TGI (DU-145 prostate): 15.5 µM | TGI (MDA-MB-231 breast): > 39.1 µM | TGI (MOLT-4 leukemia): 10.1 µM | TGI (786-0 renal): > 46.7 µM | TGI (HCC-2998 colon): 0.672 µM | TGI (U251 CNS): 23 µM | TGI (SF-295 CNS): 36.3 µM | TGI (SF-539 CNS): 21.6 µM | TGI (NCI-H460 lung): 12.1 µM | TGI (LOX IMVI melanoma): 12.8 µM | TGI (UACC-62 melanoma): 28.6 µM | TGI (IGROV1 ovarian): 26.2 µM | TGI (TK-10 renal): 19 µM | TGI (ACHN renal): 17.6 µM | TGI (A549 NSCLC): > 66 µM | TGI (SK-MEL-28 melanoma): 62.9 µM | TGI (HCT-116 colon): 19.5 µM | TGI (MALME-3M melanoma): 47.3 µM | TGI (T-47D breast): 44.4 µM | TGI (SNB-19 CNS): 18.5 µM | TGI (NCI-H23 lung): 20.8 µM | TGI (CAKI-1 renal): 0.194 µM | TGI (SW-620 colon): 20.8 µM | TGI (SK-OV-3 ovarian): 32.7 µM | TGI (SNB-75 CNS): > 61.4 µM | TGI (SR leukemia): 4.65 µM | TGI (HT29 colon): 17.9 µM | TGI (SK-MEL-2 melanoma): 22.6 µM | TGI (COLO 205 colon): 26.8 µM

From PubChem BioAssay (NCI)
